From patent publication US12559474B2, “Triazine derivatives having virus replication inhibitory activity and pharmaceutical composition comprising the same” (priority 2021, dated 2026)
Read-outs that look alike come from different tables or passages of the source.

Experiments:
SARS-CoV-2 = assay: microbe, parasite or virus in culture; assay type: cell-based; details: Severe acute respiratory syndrome coronavirus 2, VeroE6/TMPRSS2, 72 h, 50% SARS-CoV-2 infected cell death inhibitory concentration, VeroE6/TMPRSS2 cells, 3 days culture
SARS-CoV-2 3CL protease = SARS-CoV-2 3CL protease (Severe acute respiratory syndrome coronavirus 2, UniProt P0DTD1); assay: biochemical; details: 50% SARS-CoV-2 3CL protease inhibitory concentration, read-out: IC50

| SMILES | EC50 (SARS-CoV-2; class symbols) [nM] | IC50 (SARS-CoV-2 3CL protease; given as class symbols) [nM] | EC50 (SARS-CoV-2; CellTiter-Glo 2.0) [nM] | IC50 (SARS-CoV-2 3CL protease; RapidFire MS) [nM] |
| --- | --- | --- | --- | --- |
| CNc1nc2cc(Cl)c(Nc3nc(=O)n(Cc4ncn(C)n4)c(=O)n3Cc3cc(F)c(F)cc3F)cc2s1 [II-0048] | < 1000 | < 100 | – | – |
| O=c1nc(Nc2cc3c(cc2Cl)OCC3)n(Cc2cc(F)c(F)c(F)c2)c(=O)n1-c1cncc2ccccc12 [II-0049] | < 1000 | < 100 | – | – |
| Cn1cnc(Cn2c(=O)nc(Nc3cc4cn(C)nc4cc3Cl)n(Cc3ccc(F)c(Cl)c3)c2=O)n1 [II-0050] | < 1000 | < 100 | – | – |
| Cn1cnc(Cn2c(=O)nc(Nc3cc4cn(C)nc4cc3Cl)n(Cc3cc(F)cc(Cl)c3)c2=O)n1 [II-0051] | 1000 to 10000 | < 100 | – | – |
| Cc1ccc(Cl)cc1Cn1c(Nc2cc3cn(C)nc3cc2Cl)nc(=O)n(Cc2ncn(C)n2)c1=O [II-0052] | 1000 to 10000 | < 100 | – | – |
| Cc1cncc(-n2c(=O)nc(Nc3cc4cn(C)nc4cc3F)n(Cc3cc(C#N)c(F)cc3Cl)c2=O)c1 [II-0053] | < 1000 | < 100 | – | – |
| Cc1cncc(-n2c(=O)nc(Nc3cc4cn(C)nc4cc3F)n(Cc3cc(F)c(F)c(C#N)c3)c2=O)c1 [II-0054] | < 1000 | < 100 | – | – |
| Cc1cncc(-n2c(=O)nc(Nc3ccc4nn(CC(F)F)cc4c3)n(Cc3cc(F)c(F)c(C#N)c3)c2=O)c1 [II-0055] | – | – | 180 | 4.5 |
| Cn1cnc(Cn2c(=O)nc(Nc3cc4oc(N)nc4cc3Cl)n(Cc3cc(Cl)c(F)cc3F)c2=O)n1 [II-0056] | 1000 to 10000 | < 100 | – | – |
| Cn1cnc(Cn2c(=O)nc(Nc3cc4oc(N)nc4cc3Cl)n(Cc3cc(F)c(F)cc3F)c2=O)n1 [II-0057] | 1000 to 10000 | < 100 | – | – |
| Cc1cncc(-n2c(=O)nc(Nc3cc4cn(CC(F)F)nc4cc3F)n(Cc3cc(F)c(F)c(Cl)c3)c2=O)c1 [II-0058] | < 1000 | < 100 | – | – |
| CNc1nc2cc(Cl)c(Nc3nc(=O)n(Cc4ncn(C)n4)c(=O)n3Cc3cc(F)c(F)c(Cl)c3)cc2o1 [II-0059] | 1000 to 10000 | < 100 | – | – |
| Cn1cnc(Cn2c(=O)nc(Nc3cc4cn(C)nc4cc3F)n(Cc3cc(F)c(F)c(Cl)c3)c2=O)n1 [II-0060] | 1000 to 10000 | < 100 | – | – |
| CNc1nc2cc(Cl)c(Nc3nc(=O)n(Cc4ncn(C)n4)c(=O)n3Cc3cc(F)c(F)c(F)c3)cc2o1 [II-0061] | 1000 to 10000 | < 100 | – | – |
| Cn1cnc(Cn2c(=O)nc(Nc3cc4cn(C)nc4cc3F)n(Cc3cc(F)c(F)c(F)c3)c2=O)n1 [II-0064] | 1000 to 10000 | < 100 | – | – |
| C#Cc1cc(F)c(F)cc1Cn1c(Nc2cc3cn(C)nc3cc2Cl)nc(=O)n(-c2cncc(C)c2)c1=O [II-0065] | < 1000 | < 100 | – | – |
| C/C=C/c1cc(F)c(F)cc1Cn1c(Nc2cc3cn(C)nc3cc2Cl)nc(=O)n(-c2cncc(C)c2)c1=O [II-0066] | 1000 to 10000 | < 100 | – | – |
| C=Cc1cc(F)c(F)cc1Cn1c(Nc2cc3cn(C)nc3cc2Cl)nc(=O)n(-c2cncc(C)c2)c1=O [II-0067] | < 1000 | < 100 | – | – |
| CCc1cc(F)c(F)cc1Cn1c(Nc2cc3cn(C)nc3cc2Cl)nc(=O)n(-c2cncc(C)c2)c1=O [II-0068] | < 1000 | < 100 | – | – |
| CCCc1cc(F)c(F)cc1Cn1c(Nc2cc3cn(C)nc3cc2Cl)nc(=O)n(-c2cncc(C)c2)c1=O [II-0069] | 1000 to 10000 | < 100 | – | – |
| Cc1cncc(-n2c(=O)nc(Nc3cc4cn(C)nc4cc3Cl)n(Cc3cc(F)c(F)cc3C#N)c2=O)c1 [II-0070] | 1000 to 10000 | < 100 | – | – |
| Cc1cncc(-n2c(=O)nc(Nc3cc4cn(C)nc4cc3Cl)n(Cc3cc(C#N)c(F)cc3OCC(C)C)c2=O)c1 [II-0071] | < 1000 | < 100 | – | – |
| Cc1cncc(-n2c(=O)nc(Nc3cc4cn(C)nc4cc3Cl)n(Cc3cc(F)c(F)cc3CCC(C)(C)O)c2=O)c1 [II-0073] | 1000 to 10000 | < 100 | – | – |
| COC(=O)Nc1nc2cc(Cl)c(Nc3nc(=O)n(-c4cncc(C)c4)c(=O)n3Cc3ccc(F)c(C#N)c3)cc2s1 [II-0074] | – | – | 248 | 3.6 |
| COC(=O)Nc1nc2cc(Cl)c(Nc3nc(=O)n(Cc4ncn(C)n4)c(=O)n3Cc3cc(F)c(F)cc3F)cc2s1 [II-0075] | < 1000 | < 100 | – | – |

| SMILES | EC50 (SARS-CoV-2; class symbols) [nM] | IC50 (SARS-CoV-2 3CL protease; given as class symbols) [nM] | EC50 (SARS-CoV-2; CellTiter-Glo 2.0) [nM] | IC50 (SARS-CoV-2 3CL protease; RapidFire MS) [nM] |
| --- | --- | --- | --- | --- |
| Cc1cncc(-n2c(=O)nc(Nc3cc4cn(C)nc4cc3Cl)n(Cc3cc(C#N)ccc3C(F)(F)F)c2=O)c1 [II-0076] | < 1000 | < 100 | – | – |
| Cc1cncc(-n2c(=O)nc(Nc3cc4cn(C)nc4cc3Cl)n(Cc3cc(Cl)ccc3C(F)(F)F)c2=O)c1 [II-0077] | < 1000 | < 100 | – | – |
| O=c1nc(Nc2cc3cn(CCN4CCOCC4)nc3cc2Cl)n(Cc2cc(F)c(F)cc2F)c(=O)n1-c1cncc2ccccc12 [II-0078] | < 1000 | < 100 | – | – |
| COC(=O)Nc1nc2cc(Cl)c(Nc3nc(=O)n(-c4cncc(C)c4)c(=O)n3Cc3cc(Cl)c(F)cn3)cc2s1 [II-0079] | < 1000 | < 100 | – | – |
| COC(=O)Nc1nc2cc(Cl)c(Nc3nc(=O)n(Cc4ncn(C)n4)c(=O)n3Cc3cc(Cl)c(F)cn3)cc2s1 [II-0080] | 1000 to 10000 | < 100 | – | – |
| Cn1cnc(Cn2c(=O)nc(Nc3cc4sc(NCC5CC5)nc4cc3Cl)n(Cc3cc(F)c(F)cc3F)c2=O)n1 [II-0082] | 1000 to 10000 | < 100 | – | – |
| COc1ccc(Nc2nc(=O)n(Cc3cc(C)n[nH]c3=O)c(=O)n2Cc2cc(F)c(F)c(F)c2)c(Cl)c1 [II-0084] | < 1000 | < 100 | – | – |
| Cc1cncc(-n2c(=O)nc(Nc3cc4cn(C)nc4cc3Cl)n(Cc3cc(C#N)c(F)cc3Cl)c2=O)c1 [II-0087] | – | – | 69 | 2.5 |
| Cn1cnc(Cn2c(=O)nc(Nc3cc4cn(C)nc4cc3Cl)n(Cc3cc(C#N)c(F)cc3Cl)c2=O)n1 [II-0088] | 1000 to 10000 | < 100 | – | – |
| Cc1cncc(-n2c(=O)nc(Nc3cc4cn(CC(F)F)nc4cc3Cl)n(Cc3ccc(F)c(C#N)c3)c2=O)c1 [II-0089] | – | – | 182 | 3.6 |
| Cc1cncc(-n2c(=O)nc(Nc3cc4cn(CC(F)F)nc4cc3Cl)n(Cc3cc(F)c(F)c(F)c3)c2=O)c1 [II-0090] | – | – | 355 | 16 |
| Cc1cncc(-n2c(=O)nc(Nc3cc4cn(C)nc4cc3Cl)n(Cc3cc(C#N)c(F)cc3CCC(C)C)c2=O)c1 [II-0092] | < 1000 | < 100 | – | – |
| COc1cc(F)c(C#N)cc1Cn1c(Nc2cc3cn(C)nc3cc2Cl)nc(=O)n(-c2cncc(C)c2)c1=O [II-0093] | – | – | 487 | 12 |
| Cc1cncc(-n2c(=O)nc(Nc3cc4cn(C)nc4cc3Cl)n(Cc3cc(F)c(F)cc3Cc3ccccc3)c2=O)c1 [II-0094] | 1000 to 10000 | < 100 | – | – |
| Cc1ccc(Cl)cc1Cn1c(Nc2cc3c(cc2Cl)nc2n3CCN2)nc(=O)n(-c2cncc(Cl)c2)c1=O [II-0095] | < 1000 | < 100 | – | – |
| Cc1cncc(-n2c(=O)nc(Nc3cc4cn(C5CCOCC5)nc4cc3Cl)n(Cc3ccc(F)c(C#N)c3)c2=O)c1 [II-0096] | < 1000 | < 100 | – | – |
| Cc1ccc(C#N)cc1Cn1c(Nc2cc3cn(C)nc3cc2F)nc(=O)n(-c2cncc(Cl)c2)c1=O [II-0097] | < 1000 | < 100 | – | – |
| Cn1cnc(Cn2c(=O)nc(Nc3cc4cn(C5CCOCC5)nc4cc3Cl)n(Cc3cc(Cl)c(F)cc3F)c2=O)n1 [II-0098] | 1000 to 10000 | < 100 | – | – |
| CC1(Cn2cc3cc(Nc4nc(=O)n(Cc5ccc[nH]c5=O)c(=O)n4Cc4cc(F)c(F)c(F)c4)c(Cl)cc3n2)COC1 [II-0099] | 1000 to 10000 | < 100 | – | – |
| Cc1cncc(-n2c(=O)nc(Nc3cc4cn(C[C@H](C)O)nc4cc3Cl)n(Cc3cc(F)c(F)cc3F)c2=O)c1 [II-0100] | < 1000 | < 100 | – | – |
| Cc1cncc(-n2c(=O)nc(Nc3cc4cn(C[C@H](C)O)nc4cc3Cl)n(Cc3cc(F)c(F)c(F)c3)c2=O)c1 [II-0101] | < 1000 | < 100 | – | – |
| Cn1cnc(Cn2c(=O)nc(Nc3cc4cn(C5CCOCC5)nc4cc3Cl)n(Cc3cc(F)c(F)cc3F)c2=O)n1 [II-0102] | 1000 to 10000 | < 100 | – | – |
| CNc1nc2cc(Cl)c(Nc3nc(=O)n(Cc4ncn(C)n4)c(=O)n3Cc3cc(Cl)c(F)cc3F)cc2o1 [II-0104] | 1000 to 10000 | < 100 | – | – |
| Cc1cncc(-n2c(=O)nc(Nc3ccc4nc(C)oc4c3)n(Cc3ccc(F)c(C#N)c3)c2=O)c1 [II-0105] | < 1000 | < 100 | – | – |
| Cc1cncc(-n2c(=O)nc(Nc3cc4c(cc3Cl)nc(C(F)F)n4C)n(Cc3ccc(F)c(C#N)c3)c2=O)c1 [II-0106] | 1000 to 10000 | < 100 | – | – |
